In patent publication US7414048B2, “4,5-dihydro-isoxazole derivatives and their pharmaceutical use” (Janssen Pharmaceutica, N.V., priority 1998, dated 2008):

Each compound was assayed on T cell blast formation in human blood (assay: In vitro inhibition of T cell blast formation in human blood (human whole blood blast formation, PHA stimulated, flow cytometry)). Settings: Test Dose 1 × 10^−5 (unit not given), 72 hours, mean where multiple measurements.
Assay type: cell-based
Method: Cells are collected after a 72 hours culture period at 37° C., supernatant is removed by centrifugation and red blood cells are lysed by a hypotonic buffer. The remaining white blood cells are collected in PBS containing propidium iodide. The blast formation is analyzed using a benchtop flow cytometer (Cytoron, Ortho) equipped with an argon-ion laser. […] When multiple measurements were performed, a mean value was calculated for the percentage inhibition of T cell blast formation.

Going from O=C(Nc1ccc(Sc2ccccc2)cc1)C1CC(c2cccnc2)=NO1 (stereo not shown) [Compound 374] to O=C(Nc1ccc(-c2noc3cc(F)ccc23)cc1)C1CC(c2cccnc2)=NO1 (stereo not shown) [Compound 466], the “% Inhibition of T cell blast formation” value falls from 85% to 82%.

With Cn1nc(-c2ccc(NC(=O)C3CC(c4cccnc4)=NO3)cc2)c2ccc(F)cc21 (stereo not shown) [Compound 465] the “% Inhibition of T cell blast formation” value was 83%.

Same assay, conditions: Test Dose 1 × 10^−6 (unit not given), 72 hours, mean where multiple measurements

First: NC(=O)C(c1ccccc1)c1ccc(NC(=O)C2CC(c3cccnc3)=NO2)cc1 (stereo not shown) [Compound 312]
Second: CC(C)OC(c1ccccc1)c1ccc(NC(=O)C2CC(c3cccnc3)=NO2)cc1.Cl (stereo not shown) [Compound 418]
The “% Inhibition of T cell blast formation” value of the first is higher: 93% for the first, 75% for the second.

Compared with O=C(c1ccccc1)c1ccc(NC(=O)C2CC(c3cccnc3)=NO2)nc1 (stereo not shown) [Compound 371], O=C(c1ccc(NC(=O)C2CC(c3cccnc3)=NO2)cc1)c1cnc2ccccc2c1 (stereo not shown) [Compound 393] is higher in “% Inhibition of T cell blast formation” value: 62% for the first, 69% for the second.

Compared with O=C(Nc1ccc(Nc2ccccc2)cc1)C1CC(c2cccnc2)=NO1 (stereo not shown) [Compound 377], CC(O)(c1ccccc1)c1ccc(NC(=O)C2CC(c3cccnc3)=NO2)cc1 (stereo not shown) [Compound 411, (A2)-4,5-dihydro-N-[4-(1-hydroxy-1-phenylethyl)phenyl]-3-(3-pyridinyl)-5-isoxazolecarboxamide] is lower in “% Inhibition of T cell blast formation” value: 85% for the first, 77% for the second.

Going from O=C(CCc1ccccc1)c1ccc(NC(=O)C2CC(c3cccnc3)=NO2)cc1 (stereo not shown) [Compound 380] to COc1ccccc1C(=O)c1ccc(NC(=O)C2CC(c3cccnc3)=NO2)cc1 (stereo not shown) [Compound 390], the “% Inhibition of T cell blast formation” value rises from 67% to 85%.

Going from O=C(c1ccc(NC(=O)C2CC(c3cccnc3)=NO2)cc1)c1ccc2ccccc2n1 (stereo not shown) [Compound 392] to O=C(Nc1ccc(C(=NO)c2cnc3ccccc3c2)cc1)C1CC(c2cccnc2)=NO1 (stereo not shown) [Compound 432], the “% Inhibition of T cell blast formation” value falls from 80% to 65%.

Going from COc1ccc(OC)c(C(=O)c2ccc(NC(=O)C3CC(c4cccnc4)=NO3)cc2)c1 (stereo not shown) [Compound 395] to COc1cccc(OC)c1C(=O)c1ccc(NC(=O)C2CC(c3cccnc3)=NO2)cc1 (stereo not shown) [Compound 397], the “% Inhibition of T cell blast formation” value rises from 77% to 82%.

First: COc1cc(C(=O)c2ccc(NC(=O)C3CC(c4cccnc4)=NO3)cc2)cc(OC)c1OC (stereo not shown) [Compound 396]
Second: O=C(c1ccc(NC(=O)C2CC(c3cccnc3)=NO2)cc1)c1ccc(F)cc1F (stereo not shown) [Compound 398]
The “% Inhibition of T cell blast formation” value of the first is lower: 65% for the first, 87% for the second.

First: CC(=O)OCC(C#N)(c1ccccc1)c1ccc(NC(=O)C2CC(c3cccnc3)=NO2)cc1 (stereo not shown) [Compound 413]
Second: COC(C(N)=O)(c1ccccc1)c1ccc(NC(=O)C2CC(c3cccnc3)=NO2)cc1 (stereo not shown) [Compound 442]
The “% Inhibition of T cell blast formation” value of the first is higher: 85% for the first, 75% for the second.

First: N#CC(OC(=O)c1ccccc1)(c1ccccc1)c1ccc(NC(=O)C2CC(c3cccnc3)=NO2)cc1 (stereo not shown) [Compound 415]
Second: CN1N=C(c2ccc(NC(=O)C3CC(c4cccnc4)=NO3)cc2)CC1c1ccccc1 (stereo not shown) [Compound 459]
The “% Inhibition of T cell blast formation” value of the first is lower: 65% for the first, 77% for the second.

Compared with COCCOC(c1ccccc1)c1ccc(NC(=O)C2CC(c3cccnc3)=NO2)cc1 (stereo not shown) [Compound 416], CCCCOC(c1ccccc1)c1ccc(NC(=O)C2CC(c3cccnc3)=NO2)cc1.Cl (stereo not shown) [Compound 417] is lower in “% Inhibition of T cell blast formation” value: 87% for the first, 42% for the second.

Going from CN(C)C(=O)c1ccc(CNC(=O)c2ccc(NC(=O)C3CC(c4cccnc4)=NO3)cc2)cc1 (stereo not shown) [Compound 426] to CNC(=O)c1ccc(CNC(=O)c2ccc(NC(=O)C3CC(c4cccnc4)=NO3)cc2)cc1 (stereo not shown) [Compound 427], the “% Inhibition of T cell blast formation” value falls from 82% to 80%.

First: O=C(Nc1ccc(C(=NO)c2ccc3c(c2)OCO3)cc1)C1CC(c2cccnc2)=NO1 (stereo not shown) [Compound 429]
Second: O=C(Nc1ccc(C(=NO)c2ccccn2)cc1)C1CC(c2cccnc2)=NO1 (stereo not shown) [Compound 439]
The “% Inhibition of T cell blast formation” value of the first is higher: 86% for the first, 79% for the second.

Going from O=C(Nc1ccc(-c2noc(-c3ccccc3)n2)cc1)C1CC(c2cccnc2)=NO1 (stereo not shown) [Compound 452] to O=C(Nc1ccc(-c2nc(-c3ccccc3)no2)cc1)C1CC(c2cccnc2)=NO1 (stereo not shown) [Compound 453], the “% Inhibition of T cell blast formation” value falls from 79% to 61%.

Going from O=C(Nc1ccc(-n2cnc3ccccc32)cc1)C1CC(c2cccnc2)=NO1 (stereo not shown) [Compound 464] to Cc1nc2ccccc2n1-c1ccc(NC(=O)C2CC(c3cccnc3)=NO2)cc1 (stereo not shown) [Compound 467], the “% Inhibition of T cell blast formation” value falls from 85% to 82%.

In the case of O=C(c1ccc(NC(=O)C2CC(c3cccnc3)=NO2)cc1)c1cccs1 (stereo not shown) [Compound 490], the “% Inhibition of T cell blast formation” value is reported as 58%.

Same assay, conditions: Test Dose 1 × 10^−7 (unit not given), 72 hours, mean where multiple measurements

Going from O=C(c1ccncc1)c1ccc(NC(=O)C2CC(c3cccnc3)=NO2)cc1 (stereo not shown) [Compound 388] to O=C(Nc1ccc(C(=NO)c2ccncc2)cc1)C1CC(c2cccnc2)=NO1 (stereo not shown) [Compound 428], the “% Inhibition of T cell blast formation” value falls from 74% to 57%.

First: COc1ccccc1C(=NO)c1ccc(NC(=O)C2CC(c3cccnc3)=NO2)cc1 (stereo not shown) [Compound 434]
Second: COc1ccc(C(=NO)c2ccc(NC(=O)C3CC(c4cccnc4)=NO3)cc2)c(OC)c1 (stereo not shown) [Compound 438]
The “% Inhibition of T cell blast formation” value of the first is higher: 83% for the first, 82% for the second.

Going from O=C(Nc1ccc(C(=NO)c2ccc(F)cc2F)cc1)C1CC(c2cccnc2)=NO1 (stereo not shown) [Compound 435] to COc1ccc(OC)c(C(=NO)c2ccc(NC(=O)C3CC(c4cccnc4)=NO3)cc2)c1 (stereo not shown) [Compound 440], the “% Inhibition of T cell blast formation” value falls from 81% to 77%.

O.O=C(c1ccccc1)c1ccc(NC(=O)[C@@H]2CC(c3cccnc3)=NO2)cc1 [Compound 491, (S)-N-(4-benzoylphenyl)-4,5-dihydro-3-(3-pyridinyl)-5-isoxazolecarboxamide (1:1) monohydrate] was tested, and the “% Inhibition of T cell blast formation” value was 70%.

Same assay, conditions: Test Dose 3 × 10^−7 (unit not given), 72 hours, mean where multiple measurements

First: CN(C)Cc1csc(NC(=O)C(c2ccccc2)c2ccc(NC(=O)C3CC(c4cccnc4)=NO3)cc2)n1 (stereo not shown) [Compound 314]
Second: O=C(Nc1ccc(C(O)c2ccccc2)cc1)[C@@H]1CC(c2cccnc2)=NO1 (stereo partly shown) [Compound 412]
The “% Inhibition of T cell blast formation” value of the first is lower: 58% for the first, 79% for the second.

First: O=C(Nc1ccc(C(C(=O)NCCN2CCOCC2)c2ccccc2)cc1)C1CC(c2cccnc2)=NO1 (stereo not shown) [Compound 325]
Second: O=C(Nc1ccc(C(=O)N2CCN(c3ccccc3)CC2)cc1)C1CC(c2cccnc2)=NO1 (stereo not shown) [Compound 379]
The “% Inhibition of T cell blast formation” value of the first is lower: 43% for the first, 51% for the second.

Going from O=C(Nc1ccc(Nc2ccc(S(=O)(=O)C(F)(F)F)cc2)cc1)C1CC(c2cccnc2)=NO1 (stereo not shown) [Compound 376] to O=C(c1ccc(NC(=O)C2CC(c3cccnc3)=NO2)cc1)c1ccc(OC(F)(F)F)cc1 (stereo not shown) [Compound 384], the “% Inhibition of T cell blast formation” value falls from 69% to 68%.

First: O=C(c1ccc(NC(=O)C2CC(c3cccnc3)=NO2)cc1)c1c(F)cccc1F (stereo not shown) [Compound 385]
Second: O=C(Nc1ccc(C(=NO)c2c(F)cccc2F)cc1)C1CC(c2cccnc2)=NO1 (stereo not shown) [Compound 431]
The “% Inhibition of T cell blast formation” value of the first is lower: 69% for the first, 71% for the second.

First: Cn1cc(C(=O)c2ccc(NC(=O)C3CC(c4cccnc4)=NO3)cc2)cn1 (stereo not shown) [Compound 386]
Second: O=C(c1ccc(NC(=O)C2CC(c3cccnc3)=NO2)cc1)c1cccnc1 (stereo not shown) [Compound 387]
The “% Inhibition of T cell blast formation” value of the first is lower: 38% for the first, 78% for the second.

Going from O=C(c1ccc(NC(=O)C2CC(c3cccnc3)=NO2)cc1)c1ccc2c(c1)OCO2 (stereo not shown) [Compound 389] to COc1ccc(C(=NO)c2ccc(NC(=O)C3CC(c4cccnc4)=NO3)cc2)cc1OC (stereo not shown) [Compound 437], the “% Inhibition of T cell blast formation” value rises from 59% to 75%.

First: O=C(Nc1ccc(C(O)c2ccncc2)cc1)C1CC(c2cccnc2)=NO1 (stereo not shown) [Compound 407]
Second: COc1ccccc1C(O)c1ccc(NC(=O)C2CC(c3cccnc3)=NO2)cc1 (stereo not shown) [Compound 409]
The “% Inhibition of T cell blast formation” value of the first is lower: 63% for the first, 88% for the second.

Compared with O=C(Nc1ccc(C(O)c2ccc(F)cc2F)cc1)C1CC(c2cccnc2)=NO1 (stereo not shown) [Compound 408], O=C(Nc1ccc(-c2n[nH]c3cc(F)ccc23)cc1)C1CC(c2cccnc2)=NO1 (stereo not shown) [Compound 463] is lower in “% Inhibition of T cell blast formation” value: 71% for the first, 33% for the second.

Compared with CN(C)C(=O)c1ccc(CNC(=O)c2ccc(NC(=O)C3CC(c4cccnc4)=NO3)cc2)cc1 (stereo not shown) [Compound 426], O=C(Cc1ccc(NC(=O)C2CC(c3cccnc3)=NO2)cc1)Nc1ccccc1 (stereo not shown) [Compound 451] is higher in “% Inhibition of T cell blast formation” value: 65% for the first, 80% for the second.

First: O=C(Nc1ccc(C(=NO)c2cccc(OC(F)(F)F)c2)cc1)C1CC(c2cccnc2)=NO1 (stereo not shown) [Compound 430]
Second: COc1cc(C(=NO)c2ccc(NC(=O)C3CC(c4cccnc4)=NO3)cc2)cc(OC)c1OC (stereo not shown) [Compound 436]
The “% Inhibition of T cell blast formation” value of the first is lower: 67% for the first, 78% for the second.

First: O=C(Nc1ccc(-c2nc(-c3ccccc3)cs2)cc1)C1CC(c2cccnc2)=NO1 (stereo not shown) [Compound 454]
Second: CN1N=C(c2ccccc2)CC1c1ccc(NC(=O)C2CC(c3cccnc3)=NO2)cc1 (stereo not shown) [Compound 457]
The “% Inhibition of T cell blast formation” value of the first is lower: 59% for the first, 67% for the second.
